Measured values published in the supplement of paper PMC11061612.

Columns and labels:
A673 (Ewing's Sarcoma) [1] = assay: Bliss excess, mean over the matrix (fraction); higher = more synergy
How it was run: (§1)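 Cell lines grown in DMEM/F12 or RPMI with 10% FBS were plated in 1536-well plates and held 24 hours at 37°C, 5% CO2 before 72 hours of exposure to two-drug dose matrices, with DMSO typically at 0.2%. CellTiter-Glo 2.0 luminescence gave viability, which was converted to inhibition. Vehicle wells were set to 0 and blank wells to 1. Combination Emax is the second-highest inhibition in the matrix, and Bliss excess is the observed combination effect minus the expected EA + EB − EA·EB, where EA and EB are the single-agent effects.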

[2] = tested on: BFTC-909 (Kidney Carcinoma); assay: as above
How it was run: as §1

[3] = tested on: CAL-33 (Oral Cavity Carcinoma); assay: as above
How it was run: as §1

[4] = tested on: Detroit562 (Head and Neck Carcinoma); assay: as above
How it was run: as §1

GAMG (Glioblastoma) = assay: as above
How it was run: as §1

MPP-89 (Mesothelioma) = assay: as above
How it was run: as §1

[5] = tested on: NCI-H1568 (Lung Adenocarcinoma); assay: as above
How it was run: as §1

NCI-H2052 (Mesothelioma) = assay: as above
How it was run: as §1

[6] = tested on: NCI-H209 (Small Cell Lung Carcinoma); assay: as above
How it was run: as §1

[7] = tested on: NCI-H524 (Small Cell Lung Carcinoma); assay: as above
How it was run: as §1

[8] = tested on: SNU-16 (Gastric Carcinoma); assay: as above
How it was run: as §1

[9] = tested on: SNU-449 (Hepatocellular Carcinoma); assay: as above
How it was run: as §1

[10] = tested on: SW1573 (Lung Adenocarcinoma); assay: as above
How it was run: as §1

[11] = tested on: SW1710 (Bladder Carcinoma); assay: as above
How it was run: as §1

[12] = tested on: YAPC (Pancreatic Carcinoma); assay: as above
How it was run: as §1

A673 (Ewing's Sarcoma) [13] = assay: combination Emax (second highest fraction inhibited in the dose matrix, 72 h); higher = more inhibition; extreme values may be limits of the assay
How it was run: as §1

[14] = tested on: BFTC-909 (Kidney Carcinoma); assay: as above
How it was run: as §1

KS-1 (Glioblastoma) = assay: as above
How it was run: as §1

[15] = tested on: SNU-449 (Hepatocellular Carcinoma); assay: as above
How it was run: as §1

[16] = tested on: SW1710 (Bladder Carcinoma); assay: as above
How it was run: as §1
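Throughout, for Bliss excess, mean over the matrix: after 72 h of two-drug dosing.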

Row | Structure (SMILES) | Bliss excess (A673 (Ewing's Sarcoma) [1]) | Bliss excess [2] | Bliss excess [3] | Bliss excess [4] | Bliss excess (GAMG (Glioblastoma)) | Bliss excess (MPP-89 (Mesothelioma)) | Bliss excess [5] | Bliss excess (NCI-H2052 (Mesothelioma)) | Bliss excess [6] | Bliss excess [7] | Bliss excess [8] | Bliss excess [9] | Bliss excess [10] | Bliss excess [11] | Bliss excess [12] | combination Emax (A673 (Ewing's Sarcoma) [13]) | combination Emax [14] | combination Emax (KS-1 (Glioblastoma)) | combination Emax [15] | combination Emax [16]
1 | COc1nnc2ccc(N3CCC(c4ccc(OCCN5CCN(C)C(=O)[C@H]5C)cc4)CC3)nn12 [AZD5153] + C[C@@H]1COCCN1C2=NC(=NC(=C2)C3(CC3)[S@](=N)(=O)C)C4=C5C=CNC5=NC=C4 [AZD6738] (first compound max 1 µM, 7x7, partner max 10 µM) | 0.0361 | -0.0072 | -0.031 | -0.0241 | 0.04 | 0.0648 | -0.0822 | -0.0497 | 0.019 | 0.0142 | -0.0408 | -0.0048 | 0.109 | 0.0013 | 0.0088 | 0.84 | 0.876 | 0.69 | 0.166 | 0.396
2 | COc1nnc2ccc(N3CCC(c4ccc(OCCN5CCN(C)C(=O)[C@H]5C)cc4)CC3)nn12 [AZD5153] + Cc1c2c(nn1C)CSCc1cc(n(C)n1)CSc1cc(c3ccccc3c1)OCCCc1c(C(=O)O)n(C)c3c-2c(Cl)ccc13 [AZD5991] (first compound max 1 µM, 7x7, partner max 1 µM) | 0.0041 | -0.0034 | 0.0009 | -0.0459 | -0.0043 | -0.0399 | -0.0309 | -0.018 | 0.0546 | 0.0723 | 0.0403 | -0.0368 | -0.0366 | -0.0389 | -0.0355 | 0.699 | 0.535 | 0.629 | 0.292 | 0.355
3 | COc1nnc2ccc(N3CCC(c4ccc(OCCN5CCN(C)C(=O)[C@H]5C)cc4)CC3)nn12 [AZD5153] + Cn1cnc2c(F)c(Nc3ccc(Br)cc3Cl)c(C(=O)NOCCO)cc21 [Selumetinib] (first compound max 1 µM, 7x7, partner max 10 µM) | 0.111 | -0.0399 | 0.0584 | -0.0316 | -0.0192 | 0.0192 | -0.0099 | 0.0301 | -0.0214 | -0.0216 | -0.0058 | -0.014 | -0.0062 | -0.0433 | 0.0121 | 0.604 | 0.488 | 0.645 | 0.243 | 0.441
4 | Cc1c2c(nn1C)CSCc1cc(n(C)n1)CSc1cc(c3ccccc3c1)OCCCc1c(C(=O)O)n(C)c3c-2c(Cl)ccc13 [AZD5991] + C1CN(CCC1(C(=O)N[C@@H](CCO)C2=CC=C(C=C2)Cl)N)C3=NC=NC4=C3C=CN4 [Capivasertib] (first compound max 1 µM, 7x7, partner max 3 µM) | 0.0001 | 0.0265 | 0.0067 | -0.0269 | -0.0239 | 0.0003 | -0.012 | -0.0083 | 0.0273 | 0.014 | -0.0001 | -0.0238 | -0.0587 | -0.0407 | -0.0095 | 0.421 | 0.446 | 0.338 | 0.182 | 0.256
5 | Cc1c2c(nn1C)CSCc1cc(n(C)n1)CSc1cc(c3ccccc3c1)OCCCc1c(C(=O)O)n(C)c3c-2c(Cl)ccc13 [AZD5991] + C=CCn1c(=O)c2cnc(Nc3ccc(N4CCN(C)CC4)cc3)nc2n1-c1cccc(C(C)(C)O)n1 [AZD1775] (first compound max 1 µM, partner max 1 µM) | 0.0002 | 0.0639 | -0.0275 | 0.0261 | -0.0528 | -0.0732 | 0.0349 | -0.0875 | 0.0103 | -0.0274 | 0.0049 | 0.0317 | -0.0337 | -0.0257 | 0.0258 | 0.614 | 0.944 | 0.464 | 0.302 | 0.344
6 | Cc1c2c(nn1C)CSCc1cc(n(C)n1)CSc1cc(c3ccccc3c1)OCCCc1c(C(=O)O)n(C)c3c-2c(Cl)ccc13 [AZD5991] + CC1(C)CCC(CN2CCN(c3ccc(C(=O)NS(=O)(=O)c4ccc(NCC5CCOCC5)c([N+](=O)[O-])c4)c(Oc4cnc5[nH]ccc5c4)c3)CC2)=C(c2ccc(Cl)cc2)C1 [Venetoclax] (first compound max 1 µM, 7x7, partner max 1 µM) | 0.0666 | -0.0001 | 0.0122 | -0.0119 | -0.0047 | -0.0065 | -0.0334 | 0.0269 | 0.241 | 0.0725 | 0.0558 | -0.0286 | -0.0549 | -0.019 | -0.0318 | 0.868 | 0.239 | 0.146 | 0.23 | 0.168
7 | Cc1c2c(nn1C)CSCc1cc(n(C)n1)CSc1cc(c3ccccc3c1)OCCCc1c(C(=O)O)n(C)c3c-2c(Cl)ccc13 [AZD5991] + CCN(CCO)CCCOc1ccc2c(Nc3cc(CC(=O)Nc4cccc(F)c4)[nH]n3)ncnc2c1 [AZD2811] (first compound max 1 µM, 7x7, partner max 1 µM) | 0.0886 | 0.0156 | 0.0153 | 0.0396 | 0.0105 | 0.0367 | -0.0051 | -0.0253 | 0.191 | -0.0016 | 0.0377 | -0.0041 | 0.0108 | 0.0088 | -0.0037 | 0.946 | 0.438 | 0.286 | 0.282 | 0.228
8 | Cc1c2c(nn1C)CSCc1cc(n(C)n1)CSc1cc(c3ccccc3c1)OCCCc1c(C(=O)O)n(C)c3c-2c(Cl)ccc13 [AZD5991] + C[C@@H]1COCCN1C2=NC(=NC(=C2)C3(CC3)[S@](=N)(=O)C)C4=C5C=CNC5=NC=C4 [AZD6738] (first compound max 1 µM, 7x7, partner max 10 µM) | 0.0077 | 0.0508 | 0.0008 | 0.0364 | 0.0116 | -0.0426 | 0.0409 | 0.039 | 0.138 | -0.0395 | 0.0167 | 0.0175 | 0.0337 | 0.0299 | 0.0715 | 0.823 | 0.931 | 0.587 | 0.198 | 0.436
9 | Cc1c2c(nn1C)CSCc1cc(n(C)n1)CSc1cc(c3ccccc3c1)OCCCc1c(C(=O)O)n(C)c3c-2c(Cl)ccc13 [AZD5991] + C[C@@H](Nc1cc(F)cc(F)c1)c1cc(C(=O)N(C)C)cc2c(=O)cc(N3CCOCC3)oc12 [AZD8186] (first compound max 1 µM, 7x7, partner max 3 µM) | 0.0129 | 0.0188 | -0.0099 | 0.0065 | -0.0458 | 0.0083 | 0.0126 | 0.0011 | -0.0154 | -0.0289 | 0.0087 | -0.078 | -0.0565 | -0.0083 | -0.0159 | 0.557 | 0.3 | 0.416 | 0.216 | 0.307
10 | Cc1c2c(nn1C)CSCc1cc(n(C)n1)CSc1cc(c3ccccc3c1)OCCCc1c(C(=O)O)n(C)c3c-2c(Cl)ccc13 [AZD5991] + Cn1cnc2c(F)c(Nc3ccc(Br)cc3Cl)c(C(=O)NOCCO)cc21 [Selumetinib] (first compound max 1 µM, 7x7, partner max 3 µM) | 0.12 | 0.0607 | 0.0814 | 0.0295 | 0.0368 | -0.0188 | 0.102 | 0.0301 | -0.0778 | -0.0129 | 0.0143 | -0.0846 | -0.0427 | -0.0214 | -0.003 | 0.671 | 0.3 | 0.31 | 0.246 | 0.256
11 | C[C@@H]1COCCN1c1cc(C2([S@](C)(=N)=O)CC2)nc(-c2ccnc3[nH]ccc23)n1 [AZD6738] + O=C(c1cc(Cc2n[nH]c(=O)c3ccccc23)ccc1F)N1CCN(C(=O)C2CC2)CC1 [Olaparib] (first compound max 10 µM, 7x7, partner max 10 µM) | 0.0381 | 0.0337 | 0.0047 | 0.0381 | -0.0461 | 0.0055 | -0.0358 | 0.026 | -0.0599 | 0.0196 | -0.0054 | 0.0007 | -0.0044 | -0.0498 | -0.0007 | 0.89 | 0.728 | 0.573 | 0.234 | 0.495
12 | NC1(C(=O)N[C@@H](CCO)c2ccc(Cl)cc2)CCN(c2ncnc3[nH]ccc23)CC1 [Capivasertib] + CC(=O)c1c(C)c2cnc(Nc3ccc(N4CCNCC4)cn3)nc2n(C2CCCC2)c1=O [Palbociclib] (first compound max 10 µM, 7x7, partner max 10 µM) | -0.018 | 0.006 | 0.0918 | 0.0585 | 0.0237 | -0.0553 | -0.124 | -0.0171 | -0.0433 | 0.0047 | 0.0129 | 0.001 | -0.0253 | -0.009 | 0.0043 | 0.271 | 0.704 | 0.5 | 0.379 | 0.447
13 | NC1(C(=O)N[C@@H](CCO)c2ccc(Cl)cc2)CCN(c2ncnc3[nH]ccc23)CC1 [Capivasertib] + CC(C)n1c(=O)n(C)c2cnc3cc(F)c(-c4ccc(OCCCN5CCCCC5)nc4)cc3c21 [AZD1390] (first compound max 10 µM, 7x7, partner max 0.3 µM) | -0.0885 | -0.013 | -0.0018 | -0.0122 | -0.0455 | -0.0069 | -0.0852 | -0.095 | -0.037 | -0.0033 | -0.0034 | -0.038 | -0.0724 | -0.0482 | -0.0105 | 0.292 | 0.622 | 0.323 | 0.174 | 0.348
14 | NC1(C(=O)N[C@@H](CCO)c2ccc(Cl)cc2)CCN(c2ncnc3[nH]ccc23)CC1 [Capivasertib] + CCN(CCO)CCCOc1ccc2c(Nc3cc(CC(=O)Nc4cccc(F)c4)[nH]n3)ncnc2c1 [AZD2811] (first compound max 10 µM, 7x7, partner max 1 µM) | -0.0158 | 0.0366 | -0.0564 | -0.0114 | -0.0737 | -0.0481 | -0.0235 | 0.0076 | -0.0383 | 0.0113 | 0.0416 | -0.0166 | -0.0197 | -0.0507 | 0.0161 | 0.703 | 0.638 | 0.547 | 0.187 | 0.36
